Laboratory results: the supplement of paper PMC10627819

Experiments:
S. pneumoniae D39V [1] = assay: fitness (endpoint OD595 vs no drug) (fraction); higher = more growth
Procedure, shortened: (§1)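 Fitness was measured as bacterial growth in 384-well plates inoculated at OD595 0.01 (30 µl, or 55 µl for S. pneumoniae). Media were TSB, LB Lennox or CY, at 37 °C. OD595 was read every 30 min for 14 h and background-subtracted against the first reading. Fitness is OD595 at the transition into stationary phase divided by the robust mean of no-drug control wells, capped at 1.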

S. aureus DSM 20231 [2] = assay: as above
Procedure, shortened: as §1

S. aureus Newman [3] = assay: as above
Procedure, shortened: as §1

B. subtilis 168 [4] = assay: as above; conditions: one replicate
Procedure, shortened: as §1

S. pneumoniae D39V [5] = assay: Bliss interaction score (quartile over a dose matrix) (fitness difference); higher = more antagonism (negative = synergy)
Procedure, shortened: (§2)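 Each OD595 reading at entry into stationary phase was scaled to the robust mean of the untreated wells on its plate, with a ceiling of 1. These ratios define fitness, and single-drug fitness was inferred from combinations. The Bliss score compares observed fitness with the product-based expectation and is reported as quartiles across all replicate types, technical, biological and donor/recipient.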

S. aureus DSM 20231 [6] = assay: as above
Procedure, shortened: as §2

S. aureus Newman [7] = assay: as above
Procedure, shortened: as §2

B. subtilis 168 [8] = assay: as above
Procedure, shortened: as §2
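Wherever Bliss interaction score (quartile over a dose matrix) is given: first quartile when negative (synergy) and third quartile when positive (antagonism).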
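Wherever fitness (endpoint OD595 vs no drug) is given: OD595 on entry to stationary phase over no-drug wells; at most 1.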

CN[C@@H]1[C@H](O)[C@H](NC)[C@H]2O[C@@]3(O)C(=O)C[C@@H](C)O[C@H]3O[C@@H]2[C@H]1O [Spectinomycin] + CN(N=O)C(=O)N[C@@H](C=O)[C@@H](O)[C@H](O)[C@H](O)CO [Streptozotocin]
fitness
Conditions	partner 0.15 µg/mL	partner 0.3 µg/mL	partner 0.6 µg/mL	partner 1.2 µg/mL	partner 2.4 µg/mL	partner 4.8 µg/mL
B. subtilis 168 [4], first compound 2 µg/mL	0.961	0.958	0.991	–	–	–
B. subtilis 168 [4], first compound 4 µg/mL	≥ 1	≥ 1	≥ 1	–	–	–
B. subtilis 168 [4], first compound 8 µg/mL	0.977	0.832	0.926	–	–	–
S. aureus DSM 20231 [2], first compound 4 µg/mL	0.831	0.761	0.757	–	–	–
S. aureus DSM 20231 [2], first compound 8 µg/mL	0.875	0.798	0.754	–	–	–
S. aureus DSM 20231 [2], first compound 16 µg/mL	0.769	0.781	0.722	–	–	–
S. aureus Newman [3], first compound 4 µg/mL	0.818	0.665	0.51	–	–	–
S. aureus Newman [3], first compound 8 µg/mL	0.812	0.631	0.478	–	–	–
S. aureus Newman [3], first compound 16 µg/mL	0.813	0.614	0.427	–	–	–
S. pneumoniae D39V [1], first compound 4 µg/mL	–	–	–	0.947	0.928	0.913
S. pneumoniae D39V [1], first compound 8 µg/mL	–	–	–	0.847	0.832	0.81

fitness, one replicate
Conditions	partner 0.15 µg/mL	partner 0.3 µg/mL	partner 0.6 µg/mL	partner 1.2 µg/mL	partner 2.4 µg/mL	partner 4.8 µg/mL
S. aureus DSM 20231 [2], first compound 32 µg/mL	0.674	0.696	0.686	–	–	–
S. aureus DSM 20231 [2], first compound 64 µg/mL	0.0638	0.0605	0.0885	–	–	–
S. aureus Newman [3], first compound 32 µg/mL	0.519	0.423	0.0868	–	–	–
S. aureus Newman [3], first compound 64 µg/mL	0.0732	0.067	0.0303	–	–	–
S. pneumoniae D39V [1], first compound 16 µg/mL	–	–	–	0.764	0.841	0.686

Conditions	Bliss interaction score
B. subtilis 168 [8]	-0.0285
S. aureus DSM 20231 [6]	0.0831
S. aureus Newman [7]	-0.046
S. pneumoniae D39V [5]	-0.0505

CN[C@@H]1[C@H](O)[C@H](NC)[C@H]2O[C@@]3(O)C(=O)C[C@@H](C)O[C@H]3O[C@@H]2[C@H]1O [Spectinomycin] + CN[C@H](CC(C)C)C(=O)N[C@H]1C(=O)N[C@@H](CC(N)=O)C(=O)N[C@H]2C(=O)N[C@H]3C(=O)N[C@H](C(=O)N[C@H](C(=O)O)c4cc(O)cc(O)c4-c4cc3ccc4O)[C@H](O)c3ccc(c(Cl)c3)Oc3cc2cc(c3O[C@@H]2O[C@H](CO)[C@@H](O)[C@H](O)[C@H]2O[C@H]2C[C@](C)(N)[C@H](O)[C@H](C)O2)Oc2ccc(cc2Cl)[C@H]1O [Vancomycin]
fitness
Conditions	first compound 4 µg/mL	first compound 8 µg/mL	first compound 16 µg/mL
S. aureus DSM 20231 [2], partner 0.1875 µg/mL	0.906	0.938	0.85
S. aureus DSM 20231 [2], partner 0.375 µg/mL	0.898	0.893	0.774
S. aureus DSM 20231 [2], partner 0.75 µg/mL	≥ 1	0.985	0.908
S. aureus Newman [3], partner 0.1875 µg/mL	0.945	0.971	0.906
S. aureus Newman [3], partner 0.375 µg/mL	0.916	0.979	0.921
S. aureus Newman [3], partner 0.75 µg/mL	0.928	0.946	0.892
S. pneumoniae D39V [1], partner 0.03125 µg/mL	0.979	0.933	0.835
S. pneumoniae D39V [1], partner 0.0625 µg/mL	0.902	0.918	0.804
S. pneumoniae D39V [1], partner 0.125 µg/mL	–	0.878	–

fitness, one replicate
Conditions	partner 0.1875 µg/mL	partner 0.25 µg/mL	partner 0.375 µg/mL	partner 0.5 µg/mL	partner 0.75 µg/mL
S. aureus DSM 20231 [2], first compound 32 µg/mL	0.741	–	0.74	–	0.737
S. aureus DSM 20231 [2], first compound 64 µg/mL	0.0522	–	0.0729	–	0.0868
S. aureus Newman [3], first compound 32 µg/mL	0.636	–	0.623	–	0.613
S. aureus Newman [3], first compound 64 µg/mL	0.119	–	0.071	–	0.0594
S. pneumoniae D39V [1], first compound 4 µg/mL	–	0.437	–	0.0734	–
S. pneumoniae D39V [1], first compound 8 µg/mL	–	0.293	–	0.0189	–

Conditions	Bliss interaction score
B. subtilis 168 [8]	0.0821
S. aureus DSM 20231 [6]	-0.059
S. aureus Newman [7]	0.0699
S. pneumoniae D39V [5]	-0.0797
